Like-named read-outs stand apart in the source and are kept apart here. No end group written: not given here.
What was measured:
washed platelets = experiment: Platelet activity assay, flow cytometry; type: cell-based; details: mouse washed platelets, 20, 10, 5, 2.5 μg/mL, 10 min, P-selectin
Experimental: Platelets were isolated from the mice as described in a previous study with minor modifications. The effect of RK22 and LL-37 on platelet activity was detected by flow cytometry. Mouse blood was mixed with Tyrode’s buffer A (137 mM NaCl, 2 mM KCl, 0.3 mM NaH2PO4, 12 mM NaHCO3, 5.5 mM glucose, 0.35% BSA, 1 mM MgCl2, and 0.2 mM EDTA, pH 6.5) and centrifuged (150× g, 10 min, room temperature) to obtain platelet-rich plasma (PRP), which was then pelleted (400× g, 5 min, room temperature), washed with Tyrode’s buffer A, and finally resuspended in Tyrode’s buffer B (137 mM NaCl, 2 mM KCl, 0.3 mM NaH2PO4, 12 mM NaHCO3, 5.5 mM glucose, 0.35% BSA and 2 mM CaCl2, pH 7.4). Antibodies against P-selectin (Biolegend, San Diego, CA, USA) were added to the platelets, followed by incubation for 10 min at room temperature. Samples (20, 10, 5, and 2.5 μg/mL) or normal saline were added, respectively, and analyzed by flow cytometry (BD, LSRFortessa^TM, Franklin Lakes, NJ, USA).

mouse red blood cells = experiment: Hemolysis assay; type: cell-based; details: up to 400 μg/mL, 37 °C, 1 h, absorbance 540 nm, 1% Triton X-100 = 100%, 3 independent experiments
Experimental: The hemolysis and cytotoxicity assays were performed according to previous research with some modifications. In the hemolysis assay, mouse blood was collected in anticoagulant tubes, centrifuged (1000× g, 5 min), and washed with normal saline three times to obtain red blood cells. The red blood cells were then resuspended to prepare a 10% red blood cell suspension. The suspension was mixed with an equal volume solution of RK22 (final concentration 0–400 μg/mL), then incubated at 37 °C for 1 h and centrifuged (1000× g, 10 min). After this, 150 μL of the supernatant was transferred to a new 96-well plate, with absorbance then measured at 540 nm. Additionally, 1% Triton X-100 and sterile saline treatment groups accounted for 100% and 0% hemolysis, respectively.
Supplementary Figures and Figure legends
(§1) Figure S1. […] After incubation for 60 min at 37°C, cells were centrifuged (3,500 rpm, 5 min) and the absorbance of the supernatant was measured at 540 nm. The value for “zero hemolysis” was determined using sterile saline (negative control, NC), while 100% hemolysis was established using 1% (v/v) Triton X-100 (PC: positive control). Hemolysis of testing sample was calculated as the percentage of Triton X-100-induced hemolysis. […] Cell viability was determined by adding 10 μl CCK8 in to the cells and incubated for 1-4 h. The absorbance at 450 nm of the solution was measured with a microplate reader. […]

HEK293T cells = experiment: Cytotoxicity assay (CCK8); type: cell-based; details: up to 400 μg/mL, 24 h, CCK8, absorbance 450 nm, 3 independent experiments
Experimental: In the cytotoxicity assay, HEK293T cells were cultured with Dulbecco’s Modified Eagle Medium (DMEM) (Corning, New York, NY, USA) consisting of 10% fetal bovine serum (FBS, Corning, New York, NY, USA) and 1% penicillin-streptomycin liquid (Solarbio, Beijing, China). After digestion using trypsin (Gibco, New York, NY, USA), the cell suspension (100 μL, 1 × 10^5 cells/mL, […]) was inoculated into each well of a 96-well plate. Once the cells were completely adherent, the supernatant was discarded, and fresh medium with or without 100 μL of RK22 (final concentration 6.25–400 μg/mL) was added to the 96-well plates. […] The plate was then incubated at 37 °C for an additional 1–4 h, with absorbance then measured at 450 nm. […]
as §1

A. baumannii, ATCC19606 = type: cell-based, Acinetobacter baumannii; details: RPMI 1640, 2 × 10^5 CFU/mL, 37 °C, 12–16 h, absorbance at 600 nm
Experimental: The bacterial strains used in this study included Pseudomonas aeruginosa (P. aeruginosa, ATCC27853), Acinetobacter baumannii (A. baumannii, ATCC19606), Escherichia coli (E. coli, ATCC8739), and S. aureus (ATCC6538, two clinically isolated strains (SA220823 and SA15772)), and three clinically isolated methicillin-resistant strains (MRSA-Z, MRSA11, and MRSA22). All strains were grown in Luria-Bertani (LB) broth.
The minimum inhibitory concentration (MIC) for all strains was determined using the […] assay based on a previous study with minor modifications. Initially, strains in the exponential phase were diluted to a concentration of 2 × 10^5 CFU/mL using RPMI 1640 medium (Corning, New York, NY, USA). Next, 100 μL of the bacterial suspension was mixed with 100 μL of the sample solution (final concentration 0–200 μg/mL in RPMI 1640 medium) in 96-well plates. The plates were then incubated at 37 °C for 12–16 h. After incubation, the absorbance at 600 nm was measured, and the MIC was determined as the lowest concentration of the test sample in which no bacterial growth was detected in the well.

C57BL/6 mice = type: in vivo, mouse; details: male C57BL/6 mice, 96 h; for survival: n = 8
Experimental: Male C57BL/6 mice (6–8 weeks of age) were randomly divided into three groups of eight mice per group. Either normal saline or RK22 (20 and 40 mg/kg) was injected intravenously via the tail vein. […] For histopathological analysis, sections of lung, liver, spleen, and kidney were fixed with 4% paraformaldehyde, embedded in paraffin wax, and stained with hematoxylin and eosin (H&E).
Figure S2. In vivo acute toxicity of RK22. Male C57BL/6 mice (6–8 weeks of age, n = 8 /group) were injected intravenously via the tail vein with saline or RK22 (20 and 40 mg/kg). Mice were observed for survival status within 96 h of the injection (A) and blood was collected via retro-orbital bleeding for routine blood analysis (B-E). The sections of lung, liver, spleen and kidney were stained […]
(1 picture or pasted object on this page, not shown here)

In the case of RKYKEKKDKSQNKKKKRKCMIL [RK22], the platelet activation (washed platelets) was “did not exert any such effects”, the hemolytic activity (mouse red blood cells) was “did not exhibit any obvious hemolytic activity” and the cytotoxicity (HEK293T cells) was “did not demonstrate any noticeable cytotoxic effects”. For the same sequence, the MIC (A. baumannii, ATCC19606) was 100 µg/mL, the “hemoglobin (HGB)” value (C57BL/6 mice; 20 and 40 mg/kg iv) was “did not induce any changes” and the “histopathological analysis (H&E) of lung, liver, spleen and kidney” value (C57BL/6 mice; 20 and 40 mg/kg iv) was “no obvious tissue injury”. For the same sequence, the platelets (C57BL/6 mice; 20 and 40 mg/kg iv) was “did not induce any changes”, the red blood cells (C57BL/6 mice; 20 and 40 mg/kg iv) was “did not induce any changes” and the white blood cells (C57BL/6 mice; 20 and 40 mg/kg iv) was “did not induce any changes”. The survival (C57BL/6 mice; single dose 20 mg/kg intravenously via the tail vein) was “did not result in any fatalities” and the survival (C57BL/6 mice; single dose 40 mg/kg intravenously via the tail vein) was “did not result in any fatalities”.

— PMC10487658, “Identification and Characterization of RK22, a Novel Antimicrobial Peptide from Hirudinaria manillensis against Methicillin Resistant Staphylococcus aureus” (International Journal of Molecular Sciences, 2023)
